Measurements as given in ChEMBL document CHEMBL1201862, “PubChem BioAssay data set” (2004).
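1) Cells in 96-well plates. 2) Compound, 48 h, 5 concentrations. 3) Linear interpolation between surrounding doses. 4) Unreached endpoint = highest concentration. GI50 marks 50% less growth.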 The source made the active and inactive calls. Rule as the data show it: active = GI50 up to about 1.1 µM and inactive = higher. Where a SMILES comes first, the peptide text is derived from it. [ ]: non-standard residue; d: D form. The star is where a group is joined. Chg = N[CH](C(=O)O)C1CCCCC1; Cbz = O=C(OCc1ccccc1)*; OBn = c1ccc(CO*)cc1

What was measured:
Experiment in all cases: inhibition of tumour cell growth, NCI panel, 48 h
[1] = system: UACC-62
[2] = system: K562
[3] = system: SR
[4] = system: HT-29
[5] = system: NCI/ADR-RES
[6] = system: TK-10
[7] = system: LOX IMVI
[8] = system: SF-539
[9] = system: SF-295
[10] = system: Hs-578T
[11] = system: SK-MEL-2
[12] = system: NCI-H23
[13] = system: SK-MEL-28
[14] = system: PC-3
[15] = system: HOP-92
[16] = system: COLO 205
[17] = system: NCI-H522
[18] = system: SN12C
[19] = system: SNB-19
[20] = system: HOP-62

| Compound | GI50 [1] | GI50 [2] | GI50 [3] | GI50 [4] | GI50 [5] | GI50 [6] | GI50 [7] | GI50 [8] | GI50 [9] | GI50 [10] | GI50 [11] | GI50 [12] | GI50 [13] | GI50 [14] | GI50 [15] | GI50 [16] | GI50 [17] | GI50 [18] | GI50 [19] | GI50 [20] |
| --- | --- | --- | --- | --- | --- | --- | --- | --- | --- | --- | --- | --- | --- | --- | --- | --- | --- | --- | --- | --- |
| O=[N+]([O-])c1cc(F)ccc1S(=O)(=O)c1ccccc1 | > 10 µM (inactive) | > 10 µM (inactive) | > 10 µM (inactive) | > 10 µM (inactive) | > 10 µM (inactive) | > 10 µM (inactive) | > 10 µM (inactive) | > 10 µM (inactive) | > 10 µM (inactive) | > 10 µM (inactive) | > 10 µM (inactive) | > 10 µM (inactive) | > 10 µM (inactive) | > 10 µM (inactive) | > 10 µM (inactive) | > 10 µM (inactive) | 2.22 µM (inactive) | > 10 µM (inactive) | > 10 µM (inactive) | > 10 µM (inactive) |
| COc1ccc2c(c1)CCCN1CCc3ccccc3C21 (stereo not given) | 32.5 µM (inactive) | 45.7 µM (inactive) | 20 µM (inactive) | 33.3 µM (inactive) | 16.8 µM (inactive) | 43.1 µM (inactive) | 32.5 µM (inactive) | 28.6 µM (inactive) | 24.7 µM (inactive) | 35.7 µM (inactive) | 40.5 µM (inactive) | 35.7 µM (inactive) | 36.5 µM (inactive) | 41.5 µM (inactive) | 37.2 µM (inactive) | 22.4 µM (inactive) | 52.1 µM (inactive) | 23.3 µM (inactive) | 42.6 µM (inactive) | 37.9 µM (inactive) |
| COC(=O)C(Cc1c[nH]c2ccccc12)NP(=O)(O)OCC1OC(n2cc(F)c(=O)[nH]c2=O)CC1O (stereo not given) | > 26.5 µM (inactive) | > 100 µM (inactive) | 5.02 µM (inactive) | > 100 µM (inactive) | 37.2 µM (inactive) | > 100 µM (inactive) | 18.2 µM (inactive) | 4.71 µM (inactive) | > 91.2 µM (inactive) | > 100 µM (inactive) | > 100 µM (inactive) | > 56 µM (inactive) | > 100 µM (inactive) | > 51.1 µM (inactive) | 31.4 µM (inactive) | > 100 µM (inactive) | > 100 µM (inactive) | > 64.4 µM (inactive) | 40.8 µM (inactive) | 25.9 µM (inactive) |
| COC(=O)C(NC(=O)C(CC(=O)OCc1ccccc1)NC(=O)OCc1ccccc1)C1CCCCC1 (stereo not given) (Cbz-Asp(OBn)-[Chg]-OMe; configuration not given here) | > 100 µM (inactive) | > 100 µM (inactive) | 59 µM (inactive) | 78.3 µM (inactive) | > 100 µM (inactive) | > 100 µM (inactive) | > 100 µM (inactive) | 59.7 µM (inactive) | 67.3 µM (inactive) | < 0.01 µM (active) | 51.9 µM (inactive) | > 100 µM (inactive) | > 100 µM (inactive) | > 100 µM (inactive) | 21.7 µM (inactive) | > 100 µM (inactive) | > 100 µM (inactive) | > 100 µM (inactive) | > 100 µM (inactive) | > 100 µM (inactive) |
| CCOC(=O)C1C(=O)CC(O)(c2ccccc2)C(C(=O)OCC)C1c1ccc(N(C)C)cc1 (stereo not given) | 33.4 µM (inactive) | 6.21 µM (inactive) | 7.33 µM (inactive) | 15.8 µM (inactive) | 26.6 µM (inactive) | > 59.8 µM (inactive) | 27.5 µM (inactive) | 18.1 µM (inactive) | 5.71 µM (inactive) | 2.1 µM (inactive) | 33 µM (inactive) | > 45.7 µM (inactive) | 45.6 µM (inactive) | 18.3 µM (inactive) | 19.7 µM (inactive) | 17.6 µM (inactive) | 9.71 µM (inactive) | 50.2 µM (inactive) | 29.9 µM (inactive) | 30.8 µM (inactive) |
| C/C(=N\NC(=O)c1ccncc1)c1ccccc1Cl | > 100 µM (inactive) | > 100 µM (inactive) | > 100 µM (inactive) | > 100 µM (inactive) | > 100 µM (inactive) | > 100 µM (inactive) | > 100 µM (inactive) | > 100 µM (inactive) | > 100 µM (inactive) | > 100 µM (inactive) | > 100 µM (inactive) | > 100 µM (inactive) | > 100 µM (inactive) | > 100 µM (inactive) | > 100 µM (inactive) | > 100 µM (inactive) | > 100 µM (inactive) | > 100 µM (inactive) | > 100 µM (inactive) | > 100 µM (inactive) |
